Values after ≈ are worked out from the molar mass of the structure shown.
Experiments:
mice = experiment: Approximate acute toxicity in mice; format: in vivo; settings: acute toxicity (i.p.), administered by i.m. route as printed
gram-positive bacteria = experiment: In vitro antibacterial activity, spectrum; format: cell-based
Procedure: (§1) Isosensitest broth (Oxoid) and Todd-Hewitt broth (Difco) were used for Staphylococci and Streptococci, respectively. Broth cultures were diluted so that the final inoculum was about 10^4 colony forming units/ml (CFU/ml).

[1] = tested on: Staplylococcus aureus Tour; experiment: In vitro antibacterial activity, two-fold dilution method in microtiter system (MIC); format: cell-based, Staphylococcus aureus
Procedure: as §1

[2] = tested on: Staphylococcus epidermidis ATCC 12228; experiment: as above; format: cell-based; settings: Isosensitest broth, inoculum about 10^4 CFU/ml, 18-24 h at 37° C.
Procedure: as §1

[3] = tested on: Streptococcus pyogenes C 203; experiment: as above; format: cell-based; settings: Todd-Hewitt broth, inoculum about 10^4 CFU/ml, 18-24 h at 37° C.
Procedure: as §1

[4] = tested on: Staphylococcus aureus ATCC 6538; experiment: as above; format: cell-based; settings: Isosensitest broth, inoculum about 10^4 CFU/ml, 18-24 h at 37° C.
Procedure: as §1

[5] = tested on: Streptococcus dysgalactiae ATCC 9926; experiment: as above; format: cell-based; settings: Todd-Hewitt broth, inoculum about 10^4 CFU/ml, 18-24 h at 37° C.
Procedure: as §1

[6] = tested on: Streptococcus pneumoniae UC 41; experiment: as above; format: cell-based; settings: Todd-Hewitt broth, inoculum about 10^4 CFU/ml, 18-24 h at 37° C.
Procedure: as §1

[7] = tested on: Streptococcus faecalis ATCC 7080; experiment: as above; format: cell-based; settings: Todd-Hewitt broth, inoculum about 10^4 CFU/ml, 18-24 h at 37° C.
Procedure: as §1

Solubility = format: physicochemical
[8] = Potentiometric titration profile; format: physicochemical; settings: methylcellosolve:water 4:1, titration with 0.01 N NaOH after excess 0.01 N HCl
S. epidermidis L 1378 = experiment: MIC against clinical isolates of coagulase-negative staphylococci; format: cell-based; settings: clinical isolate
Procedure: as §1
(§2) Its MICs […] against some clinical isolates of the above microbial strains are listed below in Table II: […]

S. epidermidis L 785 = experiment: as above; format: cell-based; settings: clinical isolate, methicillin-resistant strain
Procedure: as §1, §2

S. saprophyticus L 1141 = experiment: as above; format: cell-based; settings: clinical isolate
Procedure: as §1, §2

S. epidermidis L 835 = experiment: as above; format: cell-based; settings: clinical isolate, methicillin-resistant strain
Procedure: as §1, §2

S. epidermidis L 1142 = experiment: as above; format: cell-based; settings: clinical isolate, methicillin-resistant strain
Procedure: as §1, §2

[9] = tested on: coagulase-negative staphylocci (S. epidermidis, S. saprophyticus); experiment: Effectiveness against coagulase-negative staphylococci; format: cell-based
Excerpt: as §2

In the case of CC(=O)N[C@@H]1[C@@H](O[C@H]2c3ccc(c(Cl)c3)Oc3cc4cc(c3O)Oc3ccc(cc3Cl)C[C@@H]3NC(=O)[C@@H](N)c5ccc(O)c(c5)Oc5cc(O)cc(c5)[C@@H](NC3=O)C(=O)N[C@@H]4C(=O)N[C@@H]3C(=O)N[C@H]2C(=O)N[C@@H](C(=O)O)c2cc(O)cc(O)c2-c2cc3ccc2O)O[C@@H](CO)[C@H](O)[C@H]1O (stereo in doubt) [antibiotic L 17046], the “approximate LD50” value (mice) is reported as “about 850 mg/kg”, the “in vitro antibacterial activity (spectrum)” value (gram-positive bacteria) is reported as “mainly active against gram-positive bacteria” and the MIC ([1]; Isosensitest broth + 30% bovine serum) is reported as 0.4 µg/mL. It also gave an MIC ([1]; Isosensitest broth, inoculum about 10^4 CFU/ml, 18-24 h at 37° C.) of 0.2 µg/mL (≈ 0.143 µM), an MIC [2] of 0.05 µg/mL (≈ 0.0357 µM) and an MIC [3] of 1.6 µg/mL (≈ 1.14 µM). It also gave an MIC [4] of 0.2 µg/mL (≈ 0.143 µM), an MIC [5] of 0.8 µg/mL (≈ 0.571 µM) and an MIC [6] of 1.6 µg/mL (≈ 1.14 µM). For the same molecule, the MIC [7] was 1.6 µg/mL (≈ 1.14 µM), the solubility (Solubility; in highly concentrated mineral acids) was “insoluble” and the solubility (Solubility; in methanol) was “sligltly soluble”. The solubility (Solubility; in water at pH>8.0, dimethylformamide, dimethylsulfoxide, propyleneglycol and methylcellosolve) was “freely soluble”, the “pH1/2 value, third titration slope” value ([8]; five equivalents) was 11 and the “pH1/2 value, first titration slope” value ([8]; one equivalent) was 5.0. For the same molecule, the “pH1/2 value, second titration slope” value ([8]; one equivalent) was 7.0, the MIC (S. epidermidis L 1378) was 0.05 µg/mL (≈ 0.0357 µM) and the MIC (S. epidermidis L 785) was 0.05 µg/mL (≈ 0.0357 µM). The MIC (S. saprophyticus L 1141) was 0.1 µg/mL (≈ 0.0713 µM), the MIC (S. epidermidis L 835) was 0.1 µg/mL (≈ 0.0713 µM) and the MIC (S. epidermidis L 1142) was 0.1 µg/mL (≈ 0.0713 µM). For the same molecule, the “effectiveness against coagulase-negative staphylococci” value [9] was “particularly effective”.

Source: US4650855A, “Glycopeptide antibiotic L 17046” (Gruppo Lepetit S.p.A., priority 1983, dated 1987)
